Data taken from US8003659B2, “Macrocyclic serine protease inhibitors” (Indenix Pharmaceuticals, Inc., priority 2008, dated 2011).

Assays:
[1] = test system: Huh-7 cells containing HCV Con1 subgenomic replicon (GS4.1 cells); test: HCV Replicon Assay (NS4A ELISA); format: cell-based; details: Hepatitis C virus, Huh-7, 72 hr, NS4A protein by ELISA
Protocol: General procedure: Huh-7 cells containing HCV Con1 subgenomic replicon (GS4.1 cells) were grown in Dulbecco's Modified Eagle Medium (DMEM) supplemented with 10% fetal bovine serum (FBS), 2 mM L-glutamine, 110 mg/L sodium pyruvate, 1× non-essential amino acids, 100 U/mL penicillin-streptomycin, and 0.5 mg/mL G418 (Invitrogen). For dose-response testing, the cells were seeded in 96-well plates at 7.5×10^3 cells/well in a volume of 50 μL, and incubated at 37° C./5% CO2. Three hours after plating, 50 μL of ten 2-fold serial dilutions of compounds (highest concentration, 75 μM) were added, and cell cultures were incubated at 37° C./5% CO2 in the presence of 0.5% DMSO. Alternatively, compounds were tested at a single concentration of 15 μM. In all cases, Huh-7 cells lacking the HCV replicon served as negative control. The cells were incubated in the presence of compounds for 72 hr after which they were monitored for expression of the NS4A protein by enzyme-linked immunosorbent assay (ELISA). For this, the plates were then fixed for 1 min with acetone/methanol (1:1, v/v), washed twice with phosphate-buffered saline (PBS), 0.1% Tween 20, blocked for 1 hr at room temperature with TNE buffer containing 10% FBS and then incubated for 2 hr at 37° C. with the anti-NS4A mouse monoclonal antibody A-236 (ViroGen) diluted in the same buffer. After washing three times with PBS, 0.1% Tween 20, the cells were incubated 1 hr at 37° C. with anti-mouse immunoglobulin G-peroxidase conjugate in TNE, 10% FBS. After washing as described above, the reaction was developed with O-phenylenediamine (Zymed). The reaction was stopped after 30 min with 2 NH2SO4, and absorbance was read at 492 nm using Sunrise Tecan spectrophotometer. EC50 values were determined from the % inhibition versus concentration data using a sigmoidal non-linear regression analysis based on four parameters with Tecan Magellan software. When screening at a single concentration, the results were expressed as % inhibition at 15 μM.

[2] = Cytotoxicity evaluation (Cell Titer 96 AQueous One Solution Cell Proliferation Assay); format: cell-based; details: human; GS4.1 cells, cellular viability
Protocol: For cytotoxicity evaluation, GS4.1 cells were treated with compounds as described above and cellular viability was monitored using the Cell Titer 96 AQueous One Solution Cell Proliferation Assay (Promega). CC50 values were determined from the % cytotoxicity versus concentration data with Tecan Magellan software as described above.

HCV NS3-NS4A protease = target: T1, HCV NS3-NS4A protease (Hepatitis C virus genotype 1b, UniProt P26663); test: HCV Protease Assay (SensoLyte 620 HCV Protease Assay kit); format: biochemical; details: 1.2 nM HCV NS3-NS4A protease, 60 min at room temperature, 5% DMSO
T1 construct: made in house
T1 sequence (P26663 1027-1208): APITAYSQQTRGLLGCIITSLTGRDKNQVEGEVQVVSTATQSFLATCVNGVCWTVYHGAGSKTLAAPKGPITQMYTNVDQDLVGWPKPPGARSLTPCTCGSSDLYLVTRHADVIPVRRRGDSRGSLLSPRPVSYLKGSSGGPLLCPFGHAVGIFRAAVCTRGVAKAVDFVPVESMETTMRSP
Protocol: General procedure: Measurement of the inhibitory effect of compounds on HCV protease activity was performed with the SensoLyte™ 620 HCV Protease Assay kit from AnaSpec, Inc. (San Jose, Calif.) under conditions described by the supplier using 1.2 nM HCV NS3-NS4A protease, which was obtained according to Taremi et al. (Protein Science, 1998, 7, 2143-2149). The compounds were tested at a variety of concentrations in assay buffer containing a final DMSO concentration of 5%. Reactions were allowed to proceed for 60 min at room temperature and fluorescence measurements were recorded with a Tecan Infinity Spectrofluorimeter. The IC50 values were determined from the percent inhibition versus concentration data using a sigmoidal non-linear regression analysis based on four parameters with Tecan Magellan software.

SMILES | EC50 [1] | CC50 [2] | IC50 (HCV NS3-NS4A protease)
COc1ccc2c(O[C@H]3C[C@H]4C(=O)N(C)CCCC/C=C\[C@@H]5C[C@@]5(C(=O)NS(=O)(=O)C5(C)CC5)NC(=O)N4C3)cc(-c3csc(C(F)(F)F)n3)nc2c1C [Compound O4, (Z)-(4R,6S,15S,17S)-[17-[7-methoxy-8-methyl-2-(2-trifluoromethylthiazol-4-yl)quinolin-4-yloxy]-13-N-methyl-2,14-dioxo-1,3,13-triazatricyclo-[13.3.0.0]octadec-7-en-4-yl]carbonyl-(1-methylcyclopropyl)sulfonamide] | < 1 µM | > 75 µM | < 1 µM
COc1cc(C)c2nc(-c3nc(C(C)C)cs3)cc(O[C@H]3C[C@H]4C(=O)N(C)CCCC/C=C\[C@@H]5C[C@@]5(C(=O)NS(=O)(=O)C5(C)CC5)NC(=O)N4C3)c2c1 [Compound 56f, (Z)-(4R,6S,15S,17S)-[17-[6-methoxy-8-methyl-2-(4-isopropylthiazol-2-yl)quinolin-4-yloxy]-13-N-methyl-2,14-dioxo-1,3,13-triazatricyclo[13.3.0.0]octadec-7-en-4-yl]carbonyl(1-methyl-cyclopropyl)sulfonamide] | < 1 µM | > 75 µM | < 1 µM
C#CC1(S(=O)(=O)NC(=O)[C@@]23C[C@H]2/C=C\CCCCN(C)C(=O)[C@@H]2C[C@H](Oc4cc(-c5nc(C(C)C)cs5)nc5c(C)c(OC)ccc45)CN2C(=O)N3)CC1 [Compound 83b, (Z)-(4R,6S,15S,17S)-[17-[7-methoxy-8-methyl-2-(4-isopropylthiazol-2-yl)quinolin-4-yloxy]-13-N-methyl-2,14-dioxo-1,3,13-triazatricyclo[13.3.0.0]octadec-7-en-4-yl]carbonyl(1-ethynylcyclopropyl)sulfonamide] | < 1 µM | > 75 µM | < 1 µM
COc1ccc2c(O[C@H]3C[C@H]4C(=O)N(C)CCCC/C=C\[C@@H]5C[C@@]5(C(=O)NS(=O)(=O)C5CC5)NC(=O)N4C3)cc(-n3ccc(C(F)(F)F)n3)nc2c1C [Compound 91g, (Z)-(4R,6S,15S,17S)-[17-[7-methoxy-8-methyl-2-(3-trifluoromethyl-1H-pyrazol-1-yl)quinolin-4-yloxy]-13-N-methyl-2,14-dioxo-1,3,13-triazatricyclo[13.3.0.0]octadec-7-ene-4-yl]carbonyl(cyclopropyl)sulfonamide] | < 1 µM | > 75 µM | < 1 µM
COc1ccc2c(O[C@H]3C[C@H]4C(=O)N(C)CCCC/C=C\[C@@H]5C[C@@]5(C(=O)NS(=O)(=O)C5(C)CC5)NC(=O)N4C3)cc(-n3ccc(C(F)(F)F)n3)nc2c1C [Compound 91c, (Z)-(4R,6S,15S,17S)-[17-[7-methoxy-8-methyl-2-(3-trifluoromethyl-1H-pyrazol-1-yl)quinolin-4-yloxy]-13-N-methyl-2,14-dioxo-1,3,13-triazatricyclo[13.3.0.0]octadec-7-ene-4-yl]carbonyl(1-methylcyclopropyl)sulfonamide] | < 1 µM | > 75 µM | < 1 µM
COc1ccc2c(O[C@H]3C[C@H]4C(=O)N(C)CCCC/C=C\[C@@H]5C[C@@]5(C(=O)NS(=O)(=O)C5(C)CC5)NC(=O)N4C3)cc(-n3ccc(C(F)(F)F)n3)nc2c1Cl [Compound 91a, (Z)-(4R,6S,15S,17S)-[17-[8-chloro-7-methoxy-2-(3-trifluoromethyl-1H-pyrazol-1-yl)quinolin-4-yloxy]-13-N-methyl-2,14-dioxo-1,3,13-triazatricyclo[13.3.0.0]octadec-7-ene-4-yl]carbonyl(1-methylcyclopropyl)sulfonamide] | < 1 µM | > 75 µM | < 1 µM
COc1ccc2c(O[C@H]3C[C@H]4C(=O)N(C)CCCC/C=C\[C@@H]5C[C@@]5(C(=O)NS(=O)(=O)C5(C)CC5)NC(=O)N4C3)cc(-c3cc(C(C)C)on3)nc2c1Cl [Compound 96d, (Z)-(4R,6S,15S,17S)-[17-[8-chloro-7-methoxy-2-(5-isopropylisoxazol-3-yl)quinolin-4-yloxy]-13-N-methyl-2,14-dioxo-1,3,13-triazatricyclo[13.3.0.0]octadec-7-ene-4-yl]carbonyl(1-methylcyclopropyl)sulfonamide] | 1 to 10 µM | > 75 µM | < 1 µM
C=Cc1csc(-c2cc(O[C@H]3C[C@H]4C(=O)N(C)CCCC/C=C\[C@@H]5C[C@@]5(C(=O)NS(=O)(=O)C5(C)CC5)NC(=O)N4C3)c3ccc(OC)c(Cl)c3n2)n1 [AH, (Z)-(4R,6S,15S,17S)-[17-[8-chloro-7-methoxy-2-(4-vinylthiazol-2-yl)quinolin-4-yloxy]-13-N-methyl-2,14-dioxo-1,3,13-triazatricyclo-[13.3.0.0]octadec-7-en-4-yl]carbonyl(1-methyl-cyclopropyl)sulfonamide] | < 1 µM | 10 to 75 µM | < 1 µM
